Experimental data as given in ChEMBL document CHEMBL1143547, “Fluorescence resonance energy transfer studies of aminoglycoside binding to a T box antiterminator RNA” (Bioorg Med Chem Lett, 2005).
pKd: −log10 of the molar value.

What was measured:
Bacillus subtilis = experiment: Binding dissociation constant towards 3'-Fl-AM1A-Rhd in Bacillus subtilis tyrS; format: functional
Nucleic Acid = experiment: Maximum Frel value for binding to 3'-Fl-AM1A-Rhd in Bacillus subtilis tyr

SMILES	pKd (Bacillus subtilis)	Frel (Nucleic Acid)
CN[C@@H]1[C@@H](O)[C@@H](O[C@@H]2[C@@H](O)[C@H](O[C@H]3O[C@H](C(C)N)CC[C@H]3N)[C@@H](N)C[C@H]2N)OC[C@]1(C)O (stereo partly drawn) [GENTAMICIN C2]	3.92	0.8
NC[C@@H]1O[C@H](O[C@H]2[C@@H](O)[C@H](O[C@@H]3[C@@H](O)[C@H](N)C[C@H](N)[C@H]3O[C@H]3O[C@H](CO)[C@@H](O)[C@H](O)[C@H]3N)O[C@@H]2CO)[C@H](N)[C@@H](O)[C@@H]1O [PAROMOMYCIN]	4.30	0.41
CN[C@@H]1[C@@H](O)[C@@H](O[C@@H]2[C@@H](O)[C@H](O[C@H]3O[C@H]([C@@H](C)NC)CC[C@H]3N)[C@@H](N)C[C@H]2N)OC[C@]1(C)O [GENTAMICIN C1]	3.92	0.8
NC[C@@H]1O[C@@H](O[C@H]2[C@H](O)[C@@H](O[C@H]3O[C@H](CO)[C@@H](O)[C@H](N)[C@H]3O)[C@H](N)C[C@@H]2N)[C@@H](O)[C@H](O)[C@H]1O [KANAMYCIN A]	3.68	
NC[C@H]1O[C@H](O[C@H]2[C@H](O)[C@@H](O[C@H]3O[C@H](CO)[C@@H](O)[C@H](N)[C@H]3O)[C@H](N)C[C@@H]2N)[C@H](N)C[C@@H]1O [TOBRAMYCIN]	4.42	0.33
NCCC(O)C(=O)N[C@@H]1C[C@H](N)[C@@H](O[C@H]2O[C@H](CN)[C@@H](O)[C@H](O)[C@H]2O)[C@H](O)[C@H]1O[C@H]1O[C@H](CO)[C@@H](O)[C@H](N)[C@H]1O (single isomer, unassigned) [AMIKACIN]	3.12	0.29

Other lines, results leading:

pKd (Bacillus subtilis)	Frel (Nucleic Acid)	SMILES
3.10	0.34	[H]/N=C(/N)N[C@H]1[C@H](O)[C@@H](O)[C@H](O[C@@H]2O[C@@H](C)[C@](O)(C=O)[C@H]2O[C@@H]2O[C@@H](CO)[C@H](O)[C@@H](O)[C@@H]2NC)[C@@H](N/C(N)=N\[H])[C@@H]1O (stereo in doubt) [STREPTOMYCIN]
3.82	0.38	NC[C@H]1O[C@H](O[C@H]2[C@H](O)[C@@H](O[C@H]3O[C@H](CO)[C@@H](O)[C@H](N)[C@H]3O)[C@H](N)C[C@@H]2N)[C@H](N)[C@@H](O)[C@@H]1O [BEKANAMYCIN]
5.07	0.46	NC[C@@H]1O[C@H](O[C@H]2[C@@H](O)[C@H](O[C@@H]3[C@@H](O)[C@H](N)C[C@H](N)[C@H]3O[C@H]3O[C@H](CN)[C@@H](O)[C@H](O)[C@H]3N)O[C@@H]2CO)[C@H](N)[C@@H](O)[C@@H]1O [FRAMYCETIN]
	0.21	NC[C@H]1O[C@H](O[C@H]2[C@H](O)[C@@H](O[C@H]3O[C@H](CO)[C@@H](O)[C@H](N)[C@H]3O)[C@H](N)C[C@@H]2N)[C@H](O)[C@@H](O)[C@@H]1O [KANAMYCIN A]
